Like-named read-outs stand apart in the source and are kept apart here.
Biological target: T1, Human Cav3.1 calcium channel (Homo sapiens, UniProt O43497)
T1 construct: expressed in transfected cells; host or cells: HEK-293 natClytin/TASK1+Cav3.1 cell line
Experiment: Human Cav3.1 calcium channel patch clamp assay (SyncroPatch 384PE; single point and IC50, voltage dependent block)
Type: cell-based
Details: for % Inhibition (Single Point Data): patch clamp
Method: Certain compounds (as indicated) were tested for Human Cav3.1 calcium channel activity via a patch clamp assay as disclosed herein.
Pulse generation and data collection were performed with PatchController384 V1.3.0 and DataController384 V1.2.1 (Nanion Technologies). Offline analysis was performed using Excel and Graphpad Prism (V 8.4.2) with complete data files uploaded to Dotmatics. The access resistance and apparent membrane capacitance were estimated using built-in protocols. Current was recorded in whole cell configuration from a population of cells. The cells were lifted, triturated, and resuspended at 800,000 cells/ml. The cells were allowed to recover in the cell hotel prior to experimentation. Currents were recorded at room temperature. The external solution contained the following (in mM): NaCl 80, NMDG 60, KCl 4, MgCl2 1, CaCl2 6, glucose 5 and HEPES 10 (pH=7.4, Osmolarity˜300 mOsm). The extracellular solution was used as the wash, reference and compound delivery solution.
The compound plate was created at 2× concentrated in the extracellular solution. The compound was diluted to 1:2 when added to the recording well. The amount of DMSO in the extracellular solution was held constant at the level used for the highest tested concentration. For the voltage clamp experiments on Cav3.1, data were sampled at 10 KHz. After establishment of the seal and the passage in the whole cell configuration, the cells were held at −120 mV. Cav3.1 current was evoked using a 100 ms step to −20 mV (to measure resting state block), followed by a 1600 ms step to −65 mV and a second 100 ms step to −20 mV (to measure voltage dependent block). The voltage protocol was applied every 15 seconds in the absence and in the presence of the compounds under investigation. […] Current amplitude (pA) was measured in the peak 1 and 2. The average of last 3 sweeps of each liquid period (vehicle, compound under investigation, full block) was calculated. Nickel-sensitive current was used to calculate the % of inhibition in the presence of the compound under investigation.

[1] = Testing Conc 1.25, HEK-293 natClytin/TASK1+Cav3.1 cell line
[2] = voltage dependent block (VDB), HEK-293 natClytin/TASK1+Cav3.1 cell line, read-out: Cav3.1 IC50
[3] = Testing Conc 1, HEK-293 natClytin/TASK1+Cav3.1 cell line

T1 sequence (O43497 whole entry): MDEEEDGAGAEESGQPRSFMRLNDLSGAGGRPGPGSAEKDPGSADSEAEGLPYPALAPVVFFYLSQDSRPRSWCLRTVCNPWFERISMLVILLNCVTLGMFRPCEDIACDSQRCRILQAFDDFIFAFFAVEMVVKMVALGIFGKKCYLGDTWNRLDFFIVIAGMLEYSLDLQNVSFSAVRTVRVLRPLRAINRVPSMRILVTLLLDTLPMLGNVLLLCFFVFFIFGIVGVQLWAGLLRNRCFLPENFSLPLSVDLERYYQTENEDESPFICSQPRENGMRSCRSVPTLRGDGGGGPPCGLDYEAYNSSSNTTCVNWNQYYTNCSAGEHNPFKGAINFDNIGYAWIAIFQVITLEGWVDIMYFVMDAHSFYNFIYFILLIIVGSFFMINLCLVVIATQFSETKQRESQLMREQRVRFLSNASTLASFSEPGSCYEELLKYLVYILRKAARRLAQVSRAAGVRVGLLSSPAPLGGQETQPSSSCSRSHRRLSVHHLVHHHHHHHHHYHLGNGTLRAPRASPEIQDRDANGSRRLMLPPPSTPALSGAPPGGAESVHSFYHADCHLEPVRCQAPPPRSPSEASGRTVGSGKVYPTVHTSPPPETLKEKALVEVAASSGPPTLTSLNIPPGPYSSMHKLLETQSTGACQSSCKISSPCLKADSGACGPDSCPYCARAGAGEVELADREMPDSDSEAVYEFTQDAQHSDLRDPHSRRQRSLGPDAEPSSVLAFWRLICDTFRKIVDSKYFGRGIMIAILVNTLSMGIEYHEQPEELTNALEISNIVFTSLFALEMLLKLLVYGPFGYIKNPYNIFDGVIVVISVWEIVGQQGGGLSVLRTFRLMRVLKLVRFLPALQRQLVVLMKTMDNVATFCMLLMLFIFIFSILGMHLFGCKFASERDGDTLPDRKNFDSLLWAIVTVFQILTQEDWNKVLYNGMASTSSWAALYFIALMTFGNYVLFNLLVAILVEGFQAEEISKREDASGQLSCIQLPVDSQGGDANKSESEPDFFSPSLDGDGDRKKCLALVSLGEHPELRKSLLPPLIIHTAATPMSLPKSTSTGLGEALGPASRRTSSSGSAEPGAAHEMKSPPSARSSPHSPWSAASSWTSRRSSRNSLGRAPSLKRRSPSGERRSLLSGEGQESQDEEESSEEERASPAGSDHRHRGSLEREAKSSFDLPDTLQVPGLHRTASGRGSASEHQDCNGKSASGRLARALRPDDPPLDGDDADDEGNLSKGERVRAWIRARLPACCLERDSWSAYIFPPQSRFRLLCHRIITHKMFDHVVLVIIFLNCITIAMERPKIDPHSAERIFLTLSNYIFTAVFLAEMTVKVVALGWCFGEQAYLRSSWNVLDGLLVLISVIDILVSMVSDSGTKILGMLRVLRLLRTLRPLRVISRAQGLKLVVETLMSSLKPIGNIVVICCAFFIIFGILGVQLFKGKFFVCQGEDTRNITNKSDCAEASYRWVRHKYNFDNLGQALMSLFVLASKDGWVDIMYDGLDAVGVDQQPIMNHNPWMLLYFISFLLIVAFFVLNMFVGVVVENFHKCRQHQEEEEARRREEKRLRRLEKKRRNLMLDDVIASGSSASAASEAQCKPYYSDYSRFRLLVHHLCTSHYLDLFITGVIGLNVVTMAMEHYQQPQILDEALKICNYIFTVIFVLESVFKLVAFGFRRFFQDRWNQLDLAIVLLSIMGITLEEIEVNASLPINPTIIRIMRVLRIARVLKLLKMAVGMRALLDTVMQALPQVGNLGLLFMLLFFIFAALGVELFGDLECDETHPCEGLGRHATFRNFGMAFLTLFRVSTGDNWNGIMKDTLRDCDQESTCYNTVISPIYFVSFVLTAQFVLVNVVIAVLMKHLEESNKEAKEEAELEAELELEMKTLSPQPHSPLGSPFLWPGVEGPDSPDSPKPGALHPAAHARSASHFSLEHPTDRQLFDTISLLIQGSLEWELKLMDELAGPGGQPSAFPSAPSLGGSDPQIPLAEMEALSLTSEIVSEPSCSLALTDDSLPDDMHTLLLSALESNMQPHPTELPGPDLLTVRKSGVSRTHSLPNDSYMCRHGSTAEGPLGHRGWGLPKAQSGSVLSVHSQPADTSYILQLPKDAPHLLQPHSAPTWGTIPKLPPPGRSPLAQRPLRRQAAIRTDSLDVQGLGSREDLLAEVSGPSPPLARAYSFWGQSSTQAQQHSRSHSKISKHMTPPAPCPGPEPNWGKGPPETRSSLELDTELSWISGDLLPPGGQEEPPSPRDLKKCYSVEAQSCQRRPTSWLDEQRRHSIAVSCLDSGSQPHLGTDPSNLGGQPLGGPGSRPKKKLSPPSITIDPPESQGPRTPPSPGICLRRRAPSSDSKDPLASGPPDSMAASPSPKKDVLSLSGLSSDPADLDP

Structure (SMILES) | % Inhibition (Single Point Data) [1] [%] | IC50 [2] [nM] | IC50 [nM] | % Inhibition (Single Point Data) [3] [%]
COC1(CCN2C3CCC2CN(Cc2nc4c(Cl)cc(F)cc4[nH]2)C3)CCCC1 [Compound 89] | 98.148 |  |  | 
COCC(C)(C)NC(=O)CN1C2CCC1CN(Cc1nc3c(Cl)cc(F)cc3[nH]1)C2 [Compound 80] | 96.659 |  |  | 
CC(C)(C)NC(=O)CN1CCC(CNc2nccc3c(Cl)cc(F)cc23)CC1 [Compound 124] | 67.808 | 645 |  | 
O[C@H]1CC[C@H](OCCN2C3CC2CN(Cc2nc4c(Cl)cc(F)cc4[nH]2)C3)CC1 [Compound 133] | 72.888 | 553 |  | 
CC(C)(C)NC(=O)CN1C2CC1CN(CC(=O)Nc1ccc(F)c(Cl)c1)C2 [Compound 216] | 97.034 |  |  | 
CC(C)Cc1cc(CNC(=O)CN2CC3CC(C2)N3CC(=O)NC(C)(C)C)nn1-c1ccccc1 [Compound 301] | 19.445 | 3240 |  | 
CC(C)(NC(=O)CN1CC2CC1CN2Cc1nc2c(Cl)ccc(F)c2[nH]1)C(F)(F)F (stereo not shown) [Compound 149] | 99.801 | 407 |  | 
COc1ccc(F)c2[nH]c(CN3CC4CC(C3)N4CC(=O)NC(C)(C)C(F)(F)F)nc12 [Compound 183] | 95.323 |  | 87.4 | 
O=C(CN1C[C@@H]2C[C@H]1CN2CC1(O)CCC(F)(F)CC1)NC12CC3CC(CC(C3)C1)C2 [Compound 277] | 56.486 | 886 |  | 
COc1cc(NC(=O)CN2CC3CC(C2)N3CC(=O)NC2(C(F)(F)F)CC2)ccc1F [Compound 257] | 89.324 | 232 |  | 
COc1cccc(NC(=O)CN2CC3CC2CN3CCNC(=O)C2(C(F)(F)F)CC2)c1 (stereo not shown) [Compound 237] | 35.987 |  |  | 
CC(C)(C)NC(=O)CN1CCN(Cc2cnc(-c3cc(F)cc(Cl)c3)[nH]2)CC1 [Compound 31, N-tert-butyl-2-[4-[[2-(3-chloro-5-fluoro-phenyl)-1H-imidazol-5-yl]methyl]piperazin-1-yl]acetamide] |  | 409 |  | 75.738
CC(C)(C)NC(=O)CN1C2CCC1CN(Cc1nc3ccccc3[nH]1)C2 [Compound 188] | 75.55 | 485 |  | 
CC(C)(C)S(=O)(=O)CCN1C2CC1CN(CC(=O)Nc1cc(F)cc(Cl)c1)C2 [Compound 50] | 57.816 |  |  | 
Cn1nc(NC(=O)CN2CCN(CC(=O)NC(C)(C)C)CC2)c2ccccc21 [Compound 40] |  |  |  | 17.386
CC(C(=O)Nc1ccc(F)c(Cl)c1)N1CC2CC(C1)N2CC(=O)NC(C)(C)C (stereo not shown) [Compound 29] | 90.315 | 342 |  | 
CC(C)(C)NC(=O)CN1C[C@@H]2C[C@H]1CN2CC(=O)Nc1cc(F)cc(Cl)c1 [Compound 58] | 91.889 |  |  | 
O=C1CCCCN1CCN1C2CCC1CN(Cc1nc3c(Cl)cc(F)cc3[nH]1)C2 [Compound 97] | 79.865 | 367 |  | 
CC(C)(C)NC(=O)CN1C[C@@H]2C[C@H]1CN2CC(=O)NC12CC3CC(C1)CC(OC(F)F)(C3)C2 [Compound 346] | 86.624 | 399 |  | 
CC(C)(C)NC(=O)CN1C2CC1CN(Cc1nc3c(Cl)cc(F)cc3o1)C2 [Compound 115] |  | 4360 |  | 
O=C(CN1C[C@@H]2C[C@H]1CN2CC(=O)NC1(C(F)(F)F)CC1)NC12CC3CC(CC(C3)C1)C2 [Compound 280] | 61.038 | 759 |  | 

Source: patent US20250213558A1, “T-TYPE CALCIUM CHANNEL MODULATORS COMPRISING A PIPERAZINE OR 1,4-DIAZEPANE CORE AND METHODS OF USE THEREOF” (Praxis Precision Medicines, Inc., priority 2022, published 2025)
